From patent publication US12440567B2, “Aqueous antibody formulation stabilized by antioxidants for parenteral administration” (AMGEN INC., priority 2007, dated 2025)

What was measured:
[1] = test system: Antibody A binding to protein A; experiment: Binding of Antibody A to protein A (CM5 sensor chip) after UV-B exposure of the formulation; conditions: 20 mM antioxidant; pH 5.20 acetate buffer; 302 nm UV light over 24 hours
Procedure: For the examples below involving exposure to UVB radiation, each sample was exposed to UVB light (λ≈302 nm) for varying times, using a UVP 8W model UVLMS-38 lamp at 4° C. The formulations were then analyzed using size exclusion chromatography high pressure liquid chromatography (SEC-HPLC). Aggregation (measured via SEC-HPLC analysis) and binding (measured using CM5 gold sensor chips) were measured to determine the effect of the antioxidant on aggregation and bioactivity of the therapeutic protein. The binding activity of therapeutic protein to a ligand (e.g. to an antibody or binding partner, or, in cases where the therapeutic was an antibody, binding activity to the specific target antigen or to protein A) was determined as follows. […] The therapeutic protein-binding ligand of interest was injected until the desired immobilization level was achieved (above 5000 response units). Three different therapeutic protein-binding ligands were measured—Antibody A's target antigen, Protein A, and D11 (an antibody that binds to erythropoietin). […] The remaining activated groups were blocked with 1.0 M ethanolamine-HCl, pH 8.5. […] Various UV-stressed antibody formulations were also diluted in HBS-EP buffer (pH 7.4) to a concentration within the standard curve region, and injected to quantitate the loss of bioactivity to its respective ligand-binding partner.

EPO = experiment: SEC-HPLC aggregation/degradation of EPO after UV-B exposure; type: physicochemical, human; conditions: pH 6.90, 302 nm UV-B 24 hours
Procedure: For the examples below involving exposure to UVB radiation, each sample was exposed to UVB light (λ≈302 nm) for varying times, using a UVP 8W model UVLMS-38 lamp at 4° C. The formulations were then analyzed using size exclusion chromatography high pressure liquid chromatography (SEC-HPLC). Aggregation (measured via SEC-HPLC analysis) and binding (measured using CM5 gold sensor chips) were measured to determine the effect of the antioxidant on aggregation and bioactivity of the therapeutic protein. The SEC-HPLC conditions were as follows: a G3000 TOSOH SWXL column was used and the flowrate was set at 0.5 mL/min. […] FIG. 4 (EPO), FIG. 5 (anti-streptavidin), and FIG. 6 (Antibody A) show SEC-HPLC chromatograms of each proteins following exposure to 302 nm UV-B light for 24 hours. […] Each formulation was then exposed to 302 nm UV-B light for 24 hours. The protein formulation was then analyzed using SEC-HPLC.

EPO binding to D11 = experiment: EPO binding activity after metal catalyzed oxidation (Fe-EDTA, H2O2, ascorbate); design: species or system human; conditions: 5 mM ferulic acid; EPO 336 μg/mL in HBS pH 7.0; 0.2 mM Fe-EDTA, 0.3% H2O2, 1 mM ascorbate, 2 hours 37° C.
Procedure: The binding activity of therapeutic protein to a ligand (e.g. to an antibody or binding partner, or, in cases where the therapeutic was an antibody, binding activity to the specific target antigen or to protein A) was determined as follows. Carboxymethyl-dextran chains on a CM5 gold sensor chip were activated with 1-ethyl-3-(3-dimethylaminopropyl)-carbodiimide HCl (EDC) and N-hydroxysuccinimide (NETS) at a flow rate of 5 μL/min. The therapeutic protein-binding ligand of interest was injected until the desired immobilization level was achieved (above 5000 response units). Three different therapeutic protein-binding ligands were measured—Antibody A's target antigen, Protein A, and D11 (an antibody that binds to erythropoietin). For introduction of Antibody A's target antigen to the column, an 80 μg injection of the antigen, diluted in 10 mM Na Acetate pH 4.0 was introduced; for Protein A, a 4 μg injection of Protein A, diluted in 10 mM Na Acetate pH 4.5, was introduced; for D11, a […] injection of D11, diluted in 10 mM Na Acetate pH 5.0 was introduced. The remaining activated groups were blocked with 1.0 M ethanolamine-HCl, pH 8.5.
A standard curve was prepared by using native forms of the therapeutic protein of interest. […]

[2] = test system: anti-streptavidin mAb (IgG2); experiment: SEC-HPLC aggregation of anti-streptavidin (IgG2) after UV-B exposure; type: physicochemical; conditions: 20 mM antioxidant; 1 mg/mL anti-streptavidin, 10 mM sodium acetate, 5% sorbitol, pH 5.00; 302 nm UV-B 24 hours
Procedure: The SEC-HPLC conditions were as follows: a G3000 TOSOH SWXL column was used and the flowrate was set at 0.5 mL/min. […] For both IgG1 and IgG2, the mobile phase was 80 mM sodium phosphate, 300 mM sodium perchlorate, 10% isopropanol, pH 7.2, and each sample was run for 45 minutes.
For FIG. 5, the anti-streptavidin formulation was prepared having the following characteristics: 1 mg/mL anti-streptavidin mAb (IgG2), 10 mM sodium acetate, 5% sorbitol, and pH 5.00. For FIG. 6, the Antibody A formulation was prepared having the following characteristics: 1 mg/mL Antibody A (IgG1), 10 mM sodium acetate, 9% sucrose, and pH 5.20.

[3] = test system: Antibody B binding to protein A; experiment: Binding of Antibody B to protein A after UV-B exposure of the formulation; conditions: 20 mM additive; pH 6.90 phosphate buffer; 0-24 hours UV-B
Procedure: For the examples below involving exposure to UVB radiation, each sample was exposed to UVB light (λ≈302 nm) for varying times, using a UVP 8W model UVLMS-38 lamp at 4° C. The formulations were then analyzed using size exclusion chromatography high pressure liquid chromatography (SEC-HPLC). Aggregation (measured via SEC-HPLC analysis) and binding (measured using CM5 gold sensor chips) were measured to determine the effect of the antioxidant on aggregation and bioactivity of the therapeutic protein.
The binding activity of therapeutic protein to a ligand (e.g. to an antibody or binding partner, or, in cases where the therapeutic was an antibody, binding activity to the specific target antigen or to protein A) was determined as follows. […] The therapeutic protein-binding ligand of interest was injected until the desired immobilization level was achieved (above 5000 response units). Three different therapeutic protein-binding ligands were measured—Antibody A's target antigen, Protein A, and D11 (an antibody that binds to erythropoietin). […] The remaining activated groups were blocked with 1.0 M ethanolamine-HCl, pH 8.5.
A standard curve was prepared by using native forms of the therapeutic protein of interest. Native forms of the therapeutic protein were diluted in HBS-EP buffer (pH 7.4) to concentrations between 1 and 5 μg/mL, and then injected on the column, prepared as described above to obtain a standard curve. At the end of each sample run, regeneration buffer was used to wash away any bound therapeutic protein in preparation for subsequent injections.
Various UV-stressed antibody formulations were also diluted in HBS-EP buffer (pH 7.4) to a concentration within the standard curve region, and injected to quantitate the loss of bioactivity to its respective ligand-binding partner.

binding of Antibody A to protein A after UV exposure [1]: preserved
amount of aggregate of EPO (SEC-HPLC) (EPO; 20 mM antioxidant, 1 mg/mL EPO, 25 mM sodium phosphate, 125 mM sodium chloride): dramatically reduced
EPO binding activity preserved (EPO binding to D11): 100%
amount of aggregate of anti-streptavidin (SEC-HPLC) [2]: dramatically reduced
binding of Antibody B to protein A after UV-B exposure [3]: prevented UV-B induced degradation
Compound: COc1cc(/C=C/C(=O)O)ccc1O [ferulic acid]
amount of EPO dimer and aggregate caused by UV light (SEC-HPLC) (EPO; 0.1 mM antioxidant, 0.336 mg/mL EPO, 20 mM sodium phosphate): able to reduce the amount of EPO dimer and aggregate
prevention of EPO degradation compared with 10 mM methionine (SEC-HPLC) (EPO; 0.1 mM antioxidant, 0.336 mg/mL EPO): able to prevent EPO degradation more effectively than 10 mM methionine
